Source: patent US10869846B2, “N-acetylcysteine amide (NAC amide) in the treatment of diseases and conditions associated with oxidative stress” (SENTIENT LIFESCIENCES, INC., priority 2005, dated 2020)

Experiments:
PC12 cells [1] = assay: LDH assay, glutamate cytotoxicity; format: cell-based; conditions: 10 mM glutamate + 750 μM NAC amide, 24 hours; glutamate alone = 100%
Method: LDH assay: For the lactate dehydrogenase (LDH) assay, cells were plated at a density of 2.5×10^5 cells/well in a 24 well collagen-coated culture plate and, after 24 h; the medium was replaced with fresh DMEM medium containing the desired concentration of glutamate and NAC amide. After the desired incubation period, the LDH activity released was determined using the kit as described below. For the MTS assay, cells were plated at a density of 10^5 cells/well in a 24 well collagen-coated plate. At the end of the experiments, cell viability was assayed using the kit as described. The LDH activity assay was performed with the CytoTox96® Non-Radioactive Cytotoxicity Assay kit (Promega, Madison, Wis., USA), which quantitatively measured the activity of LDH, a stable cytosolic enzyme that is released upon cell lysis [Technical Bulletin No. 163, Promega]. […] Absorbance data were collected using a BMG microplate reader (BMG Labtechnologies, Inc., Durham, N.C., USA) at 490 nm. LDH leakage was expressed as the percentage (%) of the maximum LDH release in the cells treated with glutamate alone (100%), according to the formula: […]
To quantify the protection provided by NAC amide, PC12 cells were exposed to 10 mM glutamate in the presence of NAC amide for 24 hours, and then the amount of LDH released was measured using the LDH assay.

red blood cells (RBCs) = conditions: Grinberg et al. 2005; cited from earlier work
PC12 cells [2] = assay: GSH measurement in cells (NPM/HPLC); format: cell-based
Method: Cells were seeded at a density of 80,000 cells/cm^2 on poly-D-lysine coated (0.05 mg/ml) 75 cm^2 flasks (5 ml/flask) for GSH measurement. […] After the incubation period, cells were removed from the cultures and homogenized in serine borate buffer (100 mM Tris-HCl, 10 mM boric acid, 5 mM L-serine, 1 mM DETAPAC, pH 7.4). Twenty (20) μl of the diluted cell homogenate were added to 230 μl of serine borate buffer and 750 μl of NPM (1 mM in acetonitrile). The resulting solutions were incubated at room temperature for 5 min. The reaction was stopped by the addition of 5 μl of 2N HCl. The samples were then filtered through a 0.2 μm Acrodisc filter and injected onto the HPLC system.
[…] Values represent means.+−.SD. Statistically different values of *P<0.05 were determined, compared to control. **P<0.001 compared to glutamate-treated group. ***P<0.05 compared to glutamate-treated group.

PC12 cells [3] = assay: Cysteine levels in cells; format: cell-based; conditions: NAC amide 750 μM, glutamate 10 mM, 24 h (FIG. 5)
Method: Cells were plated and grown for 24 hours, and then they were exposed to glutamate (10 mM) in the presence or absence of NAC amide (750 μM). Twenty-four hours later, the cells were harvested and cysteine levels were measured. Values represent means±SD. Statistically different values of *P<0.005 and **P<0.05 were determined, compared to control. ***P<0.05 compared to glutamate-treated group.
GSH measurement: Cellular levels of GSH were determined by using the method as described in Winters R. A. et al., Anal Biochem., 227(1):14-21, 1995. Cells were seeded at a density of 80,000 cells/cm^2 on poly-D-lysine coated (0.05 mg/ml) 75 cm^2 flasks (5 ml/flask) for GSH measurement. After 24 hours, the flasks were incubated with fresh medium containing glutamate (10 mM), or BSO (0.2 mM) or Glu+BSO+NAC amide (750 μM) at […] for another 24 h. After the incubation period, cells were removed from the cultures and homogenized in serine borate buffer (100 mM Tris-HCl, 10 mM boric acid, 5 mM L-serine, 1 mM DETAPAC, pH 7.4). Twenty (20) μl of the diluted cell homogenate were added to 230 μl of serine borate buffer and 750 μl of NPM (1 mM in acetonitrile). The resulting solutions were incubated at room temperature for 5 min. The reaction was stopped by the addition of 5 μl of 2N HCl. The samples were then filtered through a 0.2 μm Acrodisc filter and injected onto the HPLC system.

[4] = Wong et al. 1986; cited from earlier work

For N-acetylcysteine amide [NAC amide], the “% LDH released” value (PC12 cells [1]) is listed as 28.9%, the “BuOOH-induced intracellular oxidation in red blood cells” value (red blood cells (RBCs)) is listed as “inhibit” and the “increase of PC12 cell GSH level compared to the control group” value (PC12 cells [2]; 750 μM, 24 hour treatment) is listed as “two fold”. For the same compound, the “GSH Levels” value (PC12 cells [2]; GLU (10 mM) + BSO (0.2 mM) + NAC amide (750 μM)) was 30 ± 4.3 nM/mg protein, the “GSH Levels” value (PC12 cells [2]; GLU (10 mM) + NAC amide (750 μM)) was 88 ± 11.0 nM/mg protein and the “GSH Levels” value (PC12 cells [2]; NAC amide (750 μM) alone) was 112 ± 17.8 nM/mg protein. The “cells' GSH levels maintained in GSH synthesis-arrested cells” value (PC12 cells [2]; glutamate + BSO (0.2 mM)) was 56% and the “cysteine levels compared to the control group” value (PC12 cells [3]) was “increase”.

For `CC(=O)N[C@@H](CS)C(=O)O` [NAC, N-acetylcysteine], the “time increased hepatic GSH levels are maintained” value [4] is given as “at least 6 hours”.
